Data taken from ChEMBL document CHEMBL1268991, “New stilbenoid with inhibitory activity on viral neuraminidases from Erythrina addisoniae” (Bioorg Med Chem Lett, 2010).
pIC50, pKi: −log10 of the molar value.

Experiments:
Neuraminidase [1] = biological target: T1, Neuraminidase (Influenza A virus, UniProt B4URF0); test: Inhibition of influenza A virus H9N2 Neuraminidase using 4-methylumbelliferyl-alpha-D-N-acetylneuraminic acid sodium salt hydrate substrate
Neuraminidase [2] = biological target: T1, Neuraminidase; test: Inhibition of influenza A virus H1N1 Neuraminidase using 4-methylumbelliferyl-alpha-D-N-acetylneuraminic acid sodium salt hydrate substrate
Neuraminidase [3] = biological target: T1, Neuraminidase; test: Non-competitive inhibition of influenza A virus H1N1 Neuraminidase using 4-methylumbelliferyl-alpha-D-N-acetylneuraminic acid sodium salt hydrate substrate by Lineweaver burk plot

| Compound | pIC50 (Neuraminidase [1]) | pIC50 (Neuraminidase [2]) | pKi (Neuraminidase [3]) |
| --- | --- | --- | --- |
| CC(C)=CCc1cc(/C=C/C(=O)c2ccc(O)cc2O)cc(O)c1O [5'-PRENYLBUTEIN] | 4.22 | 4.19 | 4.18 |
| CC1(C)C=Cc2cc(-c3coc4cc(O)ccc4c3=O)ccc2O1 [ISOWIGHTEONE] | < 3.81 | < 3.81 | – |
| COc1ccc(/C(C=O)=C\c2ccc(O)cc2OC)c(O)c1 [ERYTHRADDISON B] | 4.62 | 4.53 | 4.49 |
| CC(C)=CCc1cc(/C=C/C(=O)c2ccc(O)cc2O)ccc1O [LICOAGROCHALCONE A] | 4.21 | 4.18 | 4.16 |
| CC(C)=CCc1c(O)cc2occ(-c3ccc(O)cc3)c(=O)c2c1O [WIGHTEONE] | < 3.83 | < 3.83 | – |
| C=C(C)C(O)CC1=c2occ(-c3ccc(O)cc3)c(=O)c2=C(O)C2C=CC(C)(C)OC12 (configuration not stated) [ERYSENEGALENSEIN] | < 3.93 | < 3.93 | – |
| CC1(C)C=Cc2c(c(CO)c3occ(-c4ccc(O)cc4)c(=O)c3c2O)O1 [ERYTHRADDISON A] | < 3.86 | < 3.86 | – |
| CC(C)=CCc1cc(-c2coc3cc(O)cc(O)c3c2=O)ccc1O [CORYLIN] | < 3.83 | < 3.83 | – |
| CC(C)=CCc1cc(/C=C/C(=O)c2ccc(O)cc2O)cc(CC=C(C)C)c1O [ABYSSINONE VI] | 4.20 | 4.17 | 4.15 |
